From US4571403A, “Antianginal medicated compound” (Institut Organicheskoi Khimii Imeni N.D. Zelinskogo …, priority 1984, dated 1986)

Tested on: patients suffering from ischemic heart disease
Assay: clinical test in patients with ischemic heart disease
Assay type: in vivo, human patients
Method: There were studied 84 patients aged 29 to 77 (46 men and 38 women) suffering from ischemic heart disease.
The patients with ischemic heart disease were classified by stages: stage 1-18 persons, stage 2-40 persons, stage […] (according to L. I. Fogelson, 1972). In 46 patients there was the attendant hypertonic disease of the second stage.
The remoteness of the disease was varied from 6 months to 22 years. The preparation was administered perorally in doses of 0.6-0.9 g 3-4 times a day. The daily dose is 1.8-3.6 g. The treatment course was 7 to 60 days; after a 5-7 days' interval the treatment was resumed depending on its efficiency so that the total course duration was up to 6 months. The effectiveness of the treatment was evaluated by the dynamics of complaints, clinic chart, objective data of pulse and arterial pressure, electrocardiographic and biochemical characteristics.

[1] = patients with attendant hypertonic disease

## CN1C(=O)N(C)C2C1N(C)C(=O)N2C (stereo not shown) [the preparation, 2,4,6,8-tetramethyl-2,4,6,8-tetraazobicyclo-/3,3,0/-octanedione-3,7]
After treatment, before 3.82±0.16
  potassium in plasma: 3.45±0.08 mequiv/l
After treatment, before 4.6±0.3
  number of erythrocytes: 5.3±0.3 mln in mm^3
After treatment, before 7.73±0.1%
  content of total protein: 8.65±0.25%
After treatment, before 26.9±1.2%
  content of lymphocytes: 31.0±2.8%
After treatment, before 65.7±5.7
  potassium in erythrocytes: 80.2±5.2 mequiv/l
After treatment, before 82.7±2.6%
  hemoglobin: 86.3±3.2%
After treatment, before 294.0±16.4%
  cholesterol: 245±15.0 mg %
After treatment, before 5,520±499
  leucocytes: 6,080±221 in mm^3
During the treatment course
  content of prothrombin: not changed
human, in vivo
  content of sodium in erythrocytes and plasma: not substantially changed
  contraindications: No contraindications against the administration of the preparation have been revealed
  patients with good therapeutic effect: 77 % of the patients
  remaining fractions of proteinogram: insignificant opposite-sign variations
  side effects: Side effects are absent
[1]
  day at which amelioration of the condition was observed: 2 to 5 days
  pulse: pulse normalization
Patients with attendant hypertonic disease, after treatment, before 102.2±1.2
  minimal arterial pressure: 89.7±4.0 mm Hg
Patients with attendant hypertonic disease, after treatment, before 180.8±3.9
  maximum arterial pressure: 161.4±3.8 mm Hg
Perorally 1.8-3.6 g daily
  electrogram: rhythm normalization
  frequency and intensity of stenocardia attacks: reduced
  metabolic processes: amelioration of metabolic processes
proteinogram, after treatment, before 19.87±1.83%
  gamaglobulins: 22.54±2.31%
